Test results taken from patent publication US20040097439A9, “Isolated polynucleotides having a reduced or an increased content of epigenetic control motifs and uses thereof” (priority 1999, published 2004).

Tested on: histone deacetylases
Assay: Relief of repressed LacZ transgenes in cleavage stage embryos by inhibitors of histone deacetylases
Assay type: cell-based, mouse
Details: for proportion of β-gal+ embryos after NaB treatment: repressed paternal transgene; for release from repression of LacZ transgenes in treated embryos: DCR6 and DCR7 2-cell embryos, NaB 2.5 mM or TSA 66 nM for 24 h
Protocol: One-cell embryos from different lines, carrying a transgene of maternal (A) or paternal (B) origin were recovered at 24 hphCG and allowed to develop in the absence (control) or presence of sodium butyrate (NaB; 2.5 mM) or trichostatin A (TSA; 66 nM) for 24 h. Aphidicolin, an inhibitor of DNA polymerases was used alone (Aph; 2 μg/ml) or in combination with sodium butyrate (Aph+NaB).
It is becoming more and more evident that at least part of the transcriptional repression dependent on methylated CpG islands is mediated by histone deacetylation. […] To test whether this mechanism could be responsible for the non-permissive transcriptional state established during gametogenesis and inherited by the embryo, cleavage stage embryos were treated with the deacetylase inhibitors, sodium butyrate (NaB) and the trichostatin A (TSA), two inhibitors of histone deacetylases (Yoshida et al., 1995).

Row | Structure (SMILES) | proportion of β-gal+ embryos after NaB treatment (DCR1 line, 3% β-gal+ in untreated embryos) [%] | proportion of β-gal+ embryos after NaB treatment (DCR3 line, 18% β-gal+ in untreated embryos) [%] | proportion of β-gal+ embryos after NaB treatment (DCR5 line, 0% β-gal+ in untreated embryos) [%] | release from repression of LacZ transgenes in treated embryos
1 | CCCC(=O)[O-].[Na+] [NaB, sodium butyrate] | 70 | 100 | 10 | release from repression
2 | CC(/C=C/C(=O)NO)=C\[C@@H](C)C(=O)c1ccc(N(C)C)cc1 [TSA, trichostatin A] |  |  |  | release from repression
